Assay results: patent publication US6998387B1, “Human appetite control by glucagon-like peptide receptor binding compounds” (Amylin Pharmaceuticals, Inc., priority 1998, dated 2006)
“Also recorded” adds a separate entry of the source. Where two headings read alike, the source gives them in different places.

Experiments:
[1] = system: healthy male subjects; assay: Effect of graded intravenous doses of synthetic human GLP-1 on food intake (Example 1); conditions: for Calorie intake / Fluid intake / Food quantity / Meal duration: 16 healthy male subjects, mean, SEM
Experimental: A randomized, double-blind design was carried out with 16 healthy men aged 23.6±0.5 years. The weight of all subjects was within normal range considering their age, sex, and height. Each subject gave written informed consent for the study.
Four treatments (0, 0.375, 0.75 and 1.5 pmol/kg), separated by at least 7 days, were administered to the 16 subjects. […] An identical standard meal was presented to the subjects on each occasion. The meal consisted of orange juice as an appetizer (480 kcal per 1); ham sandwiches (60 g bread, 10 g butter, 25 g ham 266 kcal per sandwich) and more orange juice and chocolate pudding (172 kcal per 100 g): coffee with cream and sugar (coffee could be sweetened if desired; therefore both cream and sugar were optional @ 12 g cream=20 kcal, 4.5 sugar=18 kcal). No other food or liquid was allowed during the study. At the end of the study, the amount of food eaten and the amount of fluid ingested was measured by absolute weight from which total caloric intake (food and fluid intake) was calculated.
Each subject was free to eat and drink as much as they wished, but the order of food intake had to follow the above schedule. To reduce participant's awareness of the amount of food being provided, food was served in excess.
On the first day of each treatment, each subject ate breakfast, if this was their normal custom; however, no snacks were allowed after 8:00 a.m. […] Infusions were delivered by ambulatory infusion pumps through a teflon catheter inserted into a forearm vein. Participants were able to sit, eat, stand and walk comfortably while receiving infusions. At 60 minutes after the start of the respective infusion, the test meal was presented and each participant was invited to eat and drink as much as they liked.
Beginning at 12:00 noon, the subjects scored their subjective feelings of hunger and fullness at 15 minute intervals throughout the treatments using a visual analogue scale of 0–10 and indicated the scores on a questionnaire. The scales and scores were designed as previously described (Welch I. M. et al. Gut 29:306–311 (1988); Welch I. M. et al. Gastroenterology 89:1293–1297 (1985); Drewe, J. et al. Gastroenterology 102:1654–1659 (1982)). For example, a score of 0 for hunger indicated the subject was not hungry at all, 2 indicated slightly hungry, 5 indicated moderately hungry, 8 indicated very hungry, and 10 indicated absolutely ravenous.
The quantity of food eaten and volume of fluid drunk was measured. The time for each subject to complete their meal was also measured. From these observations, the average rate of food and fluid intake, as well as the calorie intake, could be calculated. In the pre-meal period and after eating, blood was drawn at regular intervals into ethylenediaminetetraacetic acid (EDTA) tubes containing aprotinine (1000 KIU/ml blood) for glucose and hormone determinations.
The peptide was dissolved in 0.9% saline containing 0.5% human serum albumin, and prepared under aseptic conditions. Aliquots of 50 μg/5 ml were stored at −20° C. […] Treatments were delivered in a double-blind fashion.
The amount of food eaten and the amount of fluid drunk, the corresponding energy intake, and the duration of meal consumption were compared between the four by one-way analysis of variance (ANOVA) using the general linear model (GLM) procedure of the SAS software package (SAS Release 6.03. Cary, N C: SAS Institute, 1988). In the event of significant differences, ANOVA was followed by the Newman-Keuls multi-comparison test for pairwise comparisons (Sachs, L. Angewandte Statistik. Berlin, Springer, (1984)). […] Scores for hunger and fullness were compared at the different time points before and after meals between the different treatments using multiple paired t-tests with Bonferroni correction (Sachs, L. Angewandte Statistik. Berlin, Springer, (1984)).

[2] = Plasma glucose and hormone concentrations during graded GLP-1 infusion (Example 1); assay type: in vivo, human; conditions: healthy male subjects
Experimental: Glucose concentrations were measured by the hexokinase method. Plasma hormone concentrations of insulin, cholecystokinin, GLP-1 and leptin were measured as depicted in FIG. 1. All hormone concentrations were determined by specific radioimmunoassay systems. For insulin and leptin concentrations commercially available test kits were used. […] GLP-1 was measured as previously described (Schirra, J. et al. Proc. Assoc. Am. Phys. 109(1):84–971 (1997)). The detection limit of the GLP-1 assay was 2 fmol/tube. […] Intra-assay and inter-assay coefficients of variation were 3.4% and 10.4%, respectively.

[3] = system: patients with diabetes mellitus type 2; assay: Effect of GLP-1 infusion on eating behaviour in diabetes mellitus type 2 (Example 2)
Experimental: Twelve male patients were recruited for the study who had diabetes mellitus type 2 for at least one year. Patients were admitted to a Research Unit after given written informed consent and after the experimental protocol had been explained to them. The mean age of the patients was 55±2 years; their mean HbA1C was 8.1±4 and their mean BMi was 29.4±1.2. Seven patients were on oral antidiabetics. The participants were tested on two different days in a placebo-controlled, randomized, double-blind, crossover study. The two test days were separated by at least one week and by no more than three weeks.
On each test day, patients arrived in the Research Unit in the morning, having fasted overnight. A standardized, fixed energy breakfast was then served and it had to be completed before 8:30 a.m. After breakfast, patients were able to read and listen to music. At 11:00 a.m., two venflon catheters were inserted into the anticubital veins of each arm, one for infusion, the other one for blood drawing. […] Infusions were delivered by ambulatory infusion pumps. 60 min after the start of the respective infusion, a test meal was presented and the participants were invited to eat and drink as much as they liked.
Beginning with the infusions, participants scored their subjective feelings of hunger and fullness in 15 min intervals throughout the experiments using visual analogue scales (VAS) of 0–10 with text expressing the most positive and most negative rating anchored at each end. VAS were used to assess hunger, fullness, and prospective food consumption using scales and scores which have previously been designed.
Each subject was free to eat and drink as much as they wished until “comfortably satisfied” of a standard meal which consisted of a) orange juice as an appetizer (480 kcal/l); b) ham sandwiches (60 g, 10 g butter, 25 g ham: 266 kcal/sandwich) with more orange juice or with water; c) strawberry mousse (100 kcal/100 g); d) coffee with cream (coffee could be sweetened with aspartam if desired; both cream and aspartan were optional; 12 g cream=20 kcal). No additional food or fluid was allowed during the study. In addition, the order of food intake had to follow the above schedule. To reduce participants' awareness of the amount of food being provided, food was served in excess. The quantity of food eaten and the quantity of fluid drunk were measured. From these observations, the total energy intake could be calculated. In the pre-meal period and after eating, blood samples were taken in regular intervals for glucose and hormone determinations. Adverse events were assessed by the attending physician through close observation of each patient; in addition, each participant was questioned after each experiment and after they had completed the two tests whether they had experienced any adverse events.
The peptide was dissolved in 0.9% saline solution containing 0.5% human serum albumin and prepared under aseptic conditions by the University of Basel Hospital Pharmacy. Aliquots of 50 μg/5 ml were stored at −20° C. […] The solutions were prepared by a pharmacist who was not involved in the study. The physician in charge of the experiment was therefore not aware of the respective treatment, thereby making it possible to conduct treatments in a double-blind fashion.
The amount of food eaten and the amount of fluid drunk as well as the corresponding energy intake were compared between the two treatments by Wilcoxon Signed Ranks Test using an SAS software package. […] Scores for hunger and fullness were compared by calculating the S score from baseline (0 min) to 60 min of infusion using the Wilcoxon Signed Ranks Test. Differences were considered significant if p was <0.05.

[4] = Plasma glucose and hormone concentrations during GLP-1 infusion (Example 2); assay type: in vivo, human; conditions: diabetes mellitus type 2
Experimental: Blood was drawn through the indwelling anticubital cannula into syringes on ice. These contained EDTA (6 μmol/l) and aprotinine (1000 KIU/l). After centrifugation, plasma hormone analyses were kept frozen at −20° C. Plasma glucose was analyzed by the glucose oxidase method. Insulin and glucagon concentrations in plasma were analyzed by commercially available radioimmunoassay kits (Biermann, Bad Nauheim, Germany). Immunoreactive GLP-1 was measured using the specific polyclonal antibody GA 1178 (Affinity Research, Nottingham, UK). Immunoreactivities were extracted from plasma samples on C-18 cartridges using acetonitrile for elution of samples. The detection limit of the assay was 0.25 pmol/l. Intra-and interassay coefficients of variation were 3.8% and 10.9%, respectively.
Differences were considered significant if p was <0.05.

[5] = system: rats; conditions: cited from earlier work
[6] = system: obese humans; conditions: infusion of GLP-1 over 210 minutes; cited from earlier work
[7] = GLP-1 0.375 pmol/kg/min i.v. infusion
[8] = GLP-1 0.75 pmol/kg/min i.v. infusion
[9] = GLP-1 1.5 pmol/kg/min i.v. infusion
[10] = pre-meal period, significant only for highest dose of GLP-1, healthy male subjects
[11] = GLP-1 1.5 pmol/kg per min i.v. vs saline, diabetes mellitus type 2
[12] = GLP-1 1.5 pmol/kg per min i.v., 12 patients with diabetes mellitus type 2, mean ± SEM
[13] = pre-meal period, baseline vs 60 min of infusion, diabetes mellitus type 2

## CC[C@H](C)[C@H](NC(=O)[C@H](Cc1ccccc1)NC(=O)[C@H](CCC(=O)O)NC(=O)[C@H](CCCCN)NC(=O)[C@H](C)NC(=O)[C@H](C)NC(=O)[C@H](CCC(N)=O)NC(=O)CNC(=O)[C@H](CCC(=O)O)NC(=O)[C@H](CC(C)C)NC(=O)[C@H](Cc1ccc(O)cc1)NC(=O)[C@H](CO)NC(=O)[C@H](CO)NC(=O)[C@@H](NC(=O)[C@H](CC(=O)O)NC(=O)[C@H](CO)NC(=O)[C@@H](NC(=O)[C@H](Cc1ccccc1)NC(=O)[C@@H](NC(=O)CNC(=O)[C@H](CCC(=O)O)NC(=O)[C@H](C)NC(=O)[C@@H](N)Cc1c[nH]cn1)[C@@H](C)O)[C@@H](C)O)C(C)C)C(=O)N[C@@H](C)C(=O)N[C@@H](Cc1c[nH]c2ccccc12)C(=O)N[C@@H](CC(C)C)C(=O)N[C@H](C(=O)N[C@@H](CCCCN)C(=O)NCC(=O)N[C@@H](CCCNC(=N)N)C(N)=O)C(C)C [GLP-1, Glucagon-like peptide-1 (7–36) amide]
[1]; [7]
  Calorie intake: 1520 ± 95 keal
  Fluid intake: 748 ± 52 mL
  Food quantity: 531 ± 35
  Meal duration: 35 ± 3 min
[1]; [8]
  Calorie intake: 1451 ± 101 keal
  Fluid intake: 689 ± 48 mL
  Food quantity: 516 ± 40
  Meal duration: 34 ± 3 min
[1]; [9]
  Calorie intake: 1107 ± 84 keal
  Fluid intake: 584 ± 45 mL
  Food quantity: 384 ± 34
  Meal duration: 30 ± 3 min
[1]; GLP-1 i.v. infusion vs control, healthy male subjects
  reduction of fluid ingestion: 18%
[1]; any infusion (0.375-1.5 pmol/kg per min i.v.), healthy male subjects
  side effects / adverse reactions: None of the participants reported any abdominal discomfort or side effects; also recorded: no overt side effects
[1]; [10]
  subjective feeling of fullness (visual analogue scale 0–10): concomitant feeling of fullness; also recorded: early fullness
  subjective feeling of hunger (visual analogue scale 0–10): reduced degree of hunger; also recorded: less hunger
[2]; any dose of GLP-1 administered
  leptin levels: did not change
[2]; graded i.v. doses of GLP-1 in 5% glucose
  blood glucose and plasma insulin concentrations: dose-dependent, short-lasting increase
[2]; highest dose of GLP-1 (1.5 pmol/kg per min) i.v. infusion
  plasma GLP-1 concentration: supraphysiological plasma concentrations
[2]; pre-meal period, any dose of GLP-1
  plasma CCK concentrations: did not change
[3]; [11]
  decrease in calorie intake: 27%
  maximal reduction in food consumption: 29%
[3]; [12]
  Calorie intake: 694 ± 79 kcal
  Fluid intake: 360 ± 60 mL
  Food quantity: 268 ± 31 g
[3]; GLP-1 1.5 pmol/kg per min i.v., diabetes mellitus type 2
  side effects / adverse reaction: None of the participants reported any abdominal discomfort or side effects
[3]; [13]
  fullness (VAS 0–10): increased feeling of fullness
  hunger (VAS 0–10): reduced degree of hunger
[4]; GLP-1 1.5 pmol/kg per min i.v. vs saline
  glucagon response: significantly reduced
[4]; GLP-1 1.5 pmol/kg per min i.v.
  plasma concentrations of GLP-1: increased the plasma concentrations of GLP-1
[4]; GLP-1 1.5 pmol/kg per min i.v., saline 1197±101
  blood glucose AUC: 765 ± 65 mmol·min/L
[4]; GLP-1 1.5 pmol/kg per min i.v., saline 1775±357
  insulin AUC: 2920±516 μU×min/L
[5]; intracerebroventricular administration, fasted rats
  food intake / feeding: reduce food intake; also recorded: inhibited feeding
[5]; intraperitoneal application, rats
  food intake: did not have any effect
[6]
  effect on appetite: no effect on appetite

## exendin (9–39) [reference compound]
[5]; GLP-1 injected into the cerebral ventricles of fasted rats
  effect on GLP-1-induced inhibition of feeding: blocked
[5]; exendin (9–39) alone, satiated rats
  food intake: doubled food intake
